Results published in ChEMBL document CHEMBL4699627, “Synthesis and biological screening of thiosemicarbazones of substituted 3-acetylcoumarins having d-glucose moiety” (Bioorg Med Chem Lett, 2020).
pIC50: −log10 of the molar value. Values after ≈ are worked out from the molar mass of the structure shown.

Tests used:
Aspergillus flavus = test: Antifungal activity against Aspergillus flavus ATCC 204304; assay type: functional
Bacillus subtilis = test: Antibacterial activity against Bacillus subtilis ATCC 11774 assessed as reduction in bacterial growth; assay type: functional
Candida albicans = test: Antifungal activity against Candida albicans ATCC 7754; assay type: functional
Klebsiella pneumoniae = test: Antibacterial activity against Klebsiella pneumoniae ATCC 4352 assessed as reduction in bacterial growth; assay type: functional
Saccharomyces cerevisiae = test: Antifungal activity against Saccharomyces cerevisiae SH 20; assay type: functional
Aspergillus niger = test: Antifungal activity against Aspergillus niger ATCC 439; assay type: functional
Pseudomonas aeruginosa = test: Antibacterial activity against Pseudomonas aeruginosa ATCC […] assessed as reduction in bacterial growth; assay type: functional
Escherichia coli = test: Antibacterial activity against Escherichia coli ATCC 25922 assessed as reduction in bacterial growth; assay type: functional
Staphylococcus aureus = test: Antibacterial activity against Staphylococcus aureus ATCC 11632 assessed as reduction in bacterial growth; assay type: functional
[1] = system: Staphylococcus epidermidis; test: Antibacterial activity against Staphylococcus epidermidis ATCC 12228 assessed as reduction in bacterial growth; assay type: functional
MDA-MB-231 = test: Cytotoxicity against human MDA-MB-231 cells incubated for 3 days by MTT assay; assay type: functional, cell-based; details: MDA-MB-231, 72 h
PC-3 = test: Cytotoxicity against human PC-3 cells incubated for 3 days by MTT assay; assay type: functional, cell-based; details: PC-3, 72 h
Salmonella typhimurium = test: Antibacterial activity against Salmonella typhimurium ATCC 14028 assessed as reduction in bacterial growth; assay type: functional, Salmonella enterica subsp. enterica serovar Typhimurium; details: Salmonella enterica
Rhodesain = Rhodesain (Trypanosoma brucei rhodesiense, UniProt Q95PM0); test: Inhibition of Trypanosoma brucei rhodesiense rhodesain using fluorogenic substrate Z-Phe-Arg-aminomethylcoumarin as substrate by fluorescence assay
[2] = system: Mycobacterium tuberculosis; test: Antimycobacterial activity against Mycobacterium tuberculosis H37Ra ATCC 25177 assessed as growth inhibition incubated for 7 days measured after 48 hrs treatment with resazurin by alamarblue assay; assay type: functional; details: H37Ra ATCC 25177, 216 h, time 9 day
[3] = system: Mycobacterium tuberculosis; test: Antimycobacterial activity against Mycobacterium tuberculosis H37Ra ATCC 25177 assessed as bacterial killing incubated for 4 weeks by CLSI standard plate count method; assay type: functional; details: H37Ra ATCC 25177, 672 h

Sequence of Rhodesain (Q95PM0 whole entry): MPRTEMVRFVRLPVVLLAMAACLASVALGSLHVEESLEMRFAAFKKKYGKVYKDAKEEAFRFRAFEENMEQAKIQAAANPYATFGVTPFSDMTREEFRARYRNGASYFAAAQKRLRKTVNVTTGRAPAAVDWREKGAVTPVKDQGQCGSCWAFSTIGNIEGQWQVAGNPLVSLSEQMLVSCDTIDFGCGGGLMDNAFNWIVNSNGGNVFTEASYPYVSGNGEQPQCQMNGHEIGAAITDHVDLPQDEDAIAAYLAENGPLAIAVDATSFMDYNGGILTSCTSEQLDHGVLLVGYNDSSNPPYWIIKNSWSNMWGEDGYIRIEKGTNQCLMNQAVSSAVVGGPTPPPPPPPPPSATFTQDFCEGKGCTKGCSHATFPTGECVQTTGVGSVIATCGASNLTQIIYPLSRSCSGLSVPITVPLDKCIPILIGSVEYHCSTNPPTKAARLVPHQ

SMILES	MIC (Aspergillus flavus) [µM]	MIC (Bacillus subtilis) [µM]	MIC (Candida albicans) [µM]	MIC (Klebsiella pneumoniae) [µM]	MIC (Saccharomyces cerevisiae) [µM]	MIC (Aspergillus niger) [µM]	MIC (Pseudomonas aeruginosa) [µM]	MIC (Escherichia coli) [µM]	MIC (Staphylococcus aureus) [µM]	MIC [1] [µM]	pIC50 (MDA-MB-231)	pIC50 (PC-3)	MIC (Salmonella typhimurium) [µM]	pIC50 (Rhodesain)	MIC [2] [µg/mL]	MBC [3] [µg/mL]
CC(=O)OC[C@H]1O[C@@H](NC(=S)N/N=C(\C)c2cc3ccc(C)cc3oc2=O)[C@H](OC(C)=O)[C@@H](OC(C)=O)[C@@H]1OC(C)=O	> 100	100 (≈ 60.6 µg/mL)	3.12 (≈ 1.89 µg/mL)	25 (≈ 15.1 µg/mL)	> 100	25 (≈ 15.1 µg/mL)	25 (≈ 15.1 µg/mL)	25 (≈ 15.1 µg/mL)	1.56 (≈ 0.945 µg/mL)							
CC(=O)OC[C@H]1O[C@@H](NC(=S)N/N=C(\C)c2c(C)c3ccccc3oc2=O)[C@H](OC(C)=O)[C@@H](OC(C)=O)[C@@H]1OC(C)=O	25 (≈ 15.1 µg/mL)	> 100	12.5 (≈ 7.57 µg/mL)	50 (≈ 30.3 µg/mL)	12.5 (≈ 7.57 µg/mL)	12.5 (≈ 7.57 µg/mL)			25 (≈ 15.1 µg/mL)	100 (≈ 60.6 µg/mL)						
Clc1ccc(COC(Cn2ccnc2)c2ccc(Cl)cc2Cl)c(Cl)c1 (centres undefined) [MICONAZOLE]	1.56 (≈ 0.649 µg/mL)		3.12 (≈ 1.3 µg/mL)		3.12 (≈ 1.3 µg/mL)	1.56 (≈ 0.649 µg/mL)										
O=c1[nH]cc(F)c(=O)[nH]1 [FLUOROURACIL]											5.32	5.54				
CC(=O)OC[C@H]1O[C@@H](NC(=S)N/N=C(\C)c2cc3cc([N+](=O)[O-])ccc3oc2=O)[C@H](OC(C)=O)[C@@H](OC(C)=O)[C@@H]1OC(C)=O	100 (≈ 63.7 µg/mL)	> 100	25 (≈ 15.9 µg/mL)	50 (≈ 31.8 µg/mL)	25 (≈ 15.9 µg/mL)	12.5 (≈ 7.96 µg/mL)	1.56 (≈ 0.993 µg/mL)	3.12 (≈ 1.99 µg/mL)	12.5 (≈ 7.96 µg/mL)	12.5 (≈ 7.96 µg/mL)			100 (≈ 63.7 µg/mL)			
C/C(=N\NC(=S)NN[C@@H]1O[C@H](CO)[C@@H](O)[C@H](O)[C@H]1O)c1ccccn1											5.80	5.55				
CC(=O)OC[C@H]1O[C@@H](NC(=S)N/N=C(\C)c2cc3cccc([N+](=O)[O-])c3oc2=O)[C@H](OC(C)=O)[C@@H](OC(C)=O)[C@@H]1OC(C)=O	12.5 (≈ 7.96 µg/mL)	12.5 (≈ 7.96 µg/mL)	0.78 (≈ 0.497 µg/mL)	12.5 (≈ 7.96 µg/mL)	12.5 (≈ 7.96 µg/mL)	3.12 (≈ 1.99 µg/mL)		25 (≈ 15.9 µg/mL)	0.78 (≈ 0.497 µg/mL)	12.5 (≈ 7.96 µg/mL)			> 100			
COc1cc(C/C=N/NC(N)=S)ccc1O[C@@H]1O[C@H](COC(C)=O)[C@H](OC(C)=O)[C@H](OC(C)=O)[C@H]1OC(C)=O														5.92		
CC(=O)OC[C@H]1O[C@@H](NC(=S)N/N=C(\C)c2cc3cc(Cl)ccc3oc2=O)[C@H](OC(C)=O)[C@@H](OC(C)=O)[C@@H]1OC(C)=O	12.5 (≈ 7.83 µg/mL)		1.56 (≈ 0.977 µg/mL)		50 (≈ 31.3 µg/mL)	100 (≈ 62.6 µg/mL)	3.12 (≈ 1.96 µg/mL)	25 (≈ 15.7 µg/mL)	> 100	> 100			50 (≈ 31.3 µg/mL)			
CC(=O)OC[C@H]1O[C@@H](NC(=S)N/N=C(\C)c2cc3cc(Br)ccc3oc2=O)[C@H](OC(C)=O)[C@@H](OC(C)=O)[C@@H]1OC(C)=O	6.25 (≈ 4.19 µg/mL)		50 (≈ 33.5 µg/mL)	25 (≈ 16.8 µg/mL)	25 (≈ 16.8 µg/mL)		3.12 (≈ 2.1 µg/mL)	3.12 (≈ 2.1 µg/mL)	100 (≈ 67 µg/mL)	3.12 (≈ 2.1 µg/mL)			25 (≈ 16.8 µg/mL)			
CC(=O)OC[C@H]1O[C@@H](NC(=S)N/N=C(\C)c2c(C)c3ccc(O)cc3oc2=O)[C@H](OC(C)=O)[C@@H](OC(C)=O)[C@@H]1OC(C)=O	1.56 (≈ 0.97 µg/mL)	100 (≈ 62.2 µg/mL)	> 100	100 (≈ 62.2 µg/mL)	0.78 (≈ 0.485 µg/mL)	3.12 (≈ 1.94 µg/mL)	12.5 (≈ 7.77 µg/mL)	100 (≈ 62.2 µg/mL)	0.78 (≈ 0.485 µg/mL)	1.56 (≈ 0.97 µg/mL)			3.12 (≈ 1.94 µg/mL)			
NC(=S)N/N=C/c1ccc(OC(=O)CC2SC(=O)NC2=O)cc1 (centres undefined)															0.031 (≈ 0.088 µM)	0.063 (≈ 0.179 µM)
O=C(O)c1cn(C2CC2)c2cc(N3CCNCC3)c(F)cc2c1=O [CIPROFLOXACIN]		3.12 (≈ 1.04 µg/mL)		1.56 (≈ 0.517 µg/mL)			1.56 (≈ 0.517 µg/mL)	1.56 (≈ 0.517 µg/mL)	3.12 (≈ 1.04 µg/mL)	3.12 (≈ 1.04 µg/mL)			1.56 (≈ 0.517 µg/mL)			
CC(=O)OC[C@H]1O[C@@H](NC(=S)N/N=C(\C)c2cc3cc(C)ccc3oc2=O)[C@H](OC(C)=O)[C@@H](OC(C)=O)[C@@H]1OC(C)=O			3.12 (≈ 1.89 µg/mL)	100 (≈ 60.6 µg/mL)	25 (≈ 15.1 µg/mL)	1.56 (≈ 0.945 µg/mL)	12.5 (≈ 7.57 µg/mL)	50 (≈ 30.3 µg/mL)	12.5 (≈ 7.57 µg/mL)	50 (≈ 30.3 µg/mL)			25 (≈ 15.1 µg/mL)			
CN[C@H](CC(C)C)C(=O)N[C@H]1C(=O)N[C@@H](CC(N)=O)C(=O)N[C@H]2C(=O)N[C@H]3C(=O)N[C@H](C(=O)N[C@H](C(=O)O)c4cc(O)cc(O)c4-c4cc3ccc4O)[C@H](O)c3ccc(c(Cl)c3)Oc3cc2cc(c3O[C@@H]2O[C@H](CO)[C@@H](O)[C@H](O)[C@H]2O[C@H]2C[C@](C)(N)[C@H](O)[C@H](C)O2)Oc2ccc(cc2Cl)[C@H]1O [VANCOMYCIN]		1.56 (≈ 2.26 µg/mL)							3.12 (≈ 4.53 µg/mL)							
CC(=O)OC[C@H]1O[C@@H](NC(=S)N/N=C(\C)c2cc3ccccc3oc2=O)[C@H](OC(C)=O)[C@@H](OC(C)=O)[C@@H]1OC(C)=O	25 (≈ 14.8 µg/mL)	> 100	100 (≈ 59.2 µg/mL)	100 (≈ 59.2 µg/mL)	50 (≈ 29.6 µg/mL)	> 100	50 (≈ 29.6 µg/mL)	50 (≈ 29.6 µg/mL)		12.5 (≈ 7.39 µg/mL)			100 (≈ 59.2 µg/mL)			
OC(Cn1cncn1)(Cn1cncn1)c1ccc(F)cc1F [FLUCONAZOLE]	0.78 (≈ 0.239 µg/mL)		0.78 (≈ 0.239 µg/mL)		0.78 (≈ 0.239 µg/mL)	1.56 (≈ 0.478 µg/mL)										
COc1cccc2cc(/C(C)=N/NC(=S)N[C@@H]3O[C@H](COC(C)=O)[C@@H](OC(C)=O)[C@H](OC(C)=O)[C@H]3OC(C)=O)c(=O)oc12	6.25 (≈ 3.89 µg/mL)	50 (≈ 31.1 µg/mL)	25 (≈ 15.5 µg/mL)	1.56 (≈ 0.97 µg/mL)	50 (≈ 31.1 µg/mL)	6.25 (≈ 3.89 µg/mL)		1.56 (≈ 0.97 µg/mL)	50 (≈ 31.1 µg/mL)	3.12 (≈ 1.94 µg/mL)						
